From ChEMBL document CHEMBL1201862, “PubChem BioAssay data set” (2004)
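1) Cells in 96-well plates. 2) Compound, 48 h, 5 concentrations. 3) Linear interpolation between surrounding doses. 4) Unreached endpoint = highest concentration. GI50 marks 50% less growth.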 The source made the active and inactive calls. Rule as the data show it: active = GI50 up to about 1.1 µM and inactive = higher.

Tests used:
Experiment in all cases: DTP human tumour cell line panel, 48 h
[1] = test system: RPMI-8226
[2] = test system: UACC-257
[3] = test system: SNB-19
[4] = test system: HOP-92
[5] = test system: HCT-15
[6] = test system: Malme-3M
[7] = test system: A498
[8] = test system: Hs-578T
[9] = test system: DU-145
[10] = test system: UO-31
[11] = test system: COLO 205
[12] = test system: HT-29
[13] = test system: NCI/ADR-RES
[14] = test system: SK-OV-3
[15] = test system: OVCAR-3
[16] = test system: SN12C
[17] = test system: T47D
[18] = test system: PC-3
[19] = test system: ACHN
[20] = test system: TK-10

Structure (SMILES)	GI50 [1]	GI50 [2]	GI50 [3]	GI50 [4]	GI50 [5]	GI50 [6]	GI50 [7]	GI50 [8]	GI50 [9]	GI50 [10]	GI50 [11]	GI50 [12]	GI50 [13]	GI50 [14]	GI50 [15]	GI50 [16]	GI50 [17]	GI50 [18]	GI50 [19]	GI50 [20]
COc1cc(OC)c(/C=N/N=C(\N)NO)c(OC)c1	> 100 µM (inactive)	> 100 µM (inactive)	> 100 µM (inactive)	> 100 µM (inactive)	83.9 µM	> 100 µM (inactive)	> 100 µM (inactive)	> 100 µM (inactive)	85.5 µM (inactive)	29 µM (inactive)	> 100 µM (inactive)	> 100 µM (inactive)	> 100 µM (inactive)	> 100 µM (inactive)	> 100 µM (inactive)	> 100 µM (inactive)	> 100 µM (inactive)	> 100 µM (inactive)	15.6 µM (inactive)	> 100 µM (inactive)
COC1OC2COC(c3ccccc3)OC2C(O)C1OC(=S)c1ccccc1 (stereo not given)	15.5 µM (inactive)	50 µM (inactive)	> 100 µM (inactive)	> 100 µM (inactive)	28.4 µM	21.2 µM (inactive)	40.5 µM (inactive)	62.1 µM (inactive)	97.3 µM (inactive)	61.4 µM (inactive)	16.7 µM (inactive)	20.5 µM (inactive)	36.6 µM (inactive)	> 100 µM (inactive)	34.8 µM (inactive)	21.8 µM (inactive)	14.9 µM (inactive)	18.3 µM (inactive)	24.3 µM (inactive)	62.5 µM (inactive)
CC1CN=C(N(C)C(=O)Nc2ccc(Cl)cc2)S1 (stereo not given)	> 10 µM (inactive)	11.5 µM (inactive)	49 µM (inactive)	29.9 µM (inactive)	0.841 µM	53.1 µM (inactive)	40.1 µM (inactive)	25.5 µM (inactive)	12.9 µM (inactive)	10.1 µM (inactive)	13.4 µM (inactive)	31.3 µM (inactive)	1.9 µM (inactive)	46 µM (inactive)	27.2 µM (inactive)	15.2 µM (inactive)	4.19 µM (inactive)	15.7 µM (inactive)	1.3 µM (inactive)	29.1 µM (inactive)
O=C(CCCN1CCC2(CC1)OC(=O)N(c1ccccc1)C2=O)c1ccccc1	> 100 µM (inactive)	> 100 µM (inactive)	> 100 µM (inactive)	> 100 µM (inactive)	> 100 µM	> 100 µM (inactive)	> 100 µM (inactive)	> 100 µM (inactive)	> 100 µM (inactive)	27.8 µM (inactive)	> 100 µM (inactive)	> 100 µM (inactive)	> 100 µM (inactive)	> 100 µM (inactive)	> 100 µM (inactive)	> 100 µM (inactive)	> 100 µM (inactive)	> 100 µM (inactive)	> 100 µM (inactive)	> 100 µM (inactive)
CC1=C(C(=O)Nc2ccccc2)C2(CCCCC2)C(C#N)=C(SCC(=O)Nc2ccc(Br)cc2)N1	2.08 µM (inactive)	7.28 µM (inactive)	6.49 µM (inactive)	3.11 µM (inactive)	4.23 µM	1.82 µM (inactive)	4.56 µM (inactive)	3.57 µM (inactive)	7.76 µM (inactive)	1.39 µM (inactive)	2.11 µM (inactive)	2.45 µM (inactive)	3.88 µM (inactive)	8.79 µM (inactive)	3.27 µM (inactive)	4.23 µM (inactive)	5.19 µM (inactive)	2.88 µM (inactive)	4.45 µM (inactive)	6.58 µM (inactive)
Cc1ccc(C)c(C2NC(=O)c3ccccc3N2)c1 (stereo not given)	2.11 µM (inactive)	12 µM (inactive)	2.1 µM (inactive)	37.2 µM (inactive)	0.515 µM	0.668 µM (active)	3.62 µM (inactive)	1.09 µM (active)	2.56 µM (inactive)	7.71 µM (inactive)	0.703 µM (active)	0.445 µM (active)	0.7 µM (active)	2.02 µM (inactive)	0.265 µM (active)	4.69 µM (inactive)	2.72 µM (inactive)	1.06 µM (active)	4.83 µM (inactive)	6.82 µM (inactive)
COc1ccc2nc3cccc([N+](=O)[O-])c3c(NCCO)c2c1	0.00235 µM (active)	0.0277 µM (active)	0.0486 µM (active)	0.0195 µM (active)	0.00594 µM	0.016 µM (active)	0.0507 µM (active)	0.0169 µM (active)	0.011 µM (active)	0.0218 µM (active)	0.00527 µM (active)	0.00615 µM (active)	0.0182 µM (active)	0.185 µM (active)	0.0149 µM (active)	0.019 µM (active)	0.141 µM (active)	0.0232 µM (active)	0.0105 µM (active)	0.0336 µM (active)
O=C1CC2(CCNCC2)C(=O)N1N1CCCCC1	> 100 µM (inactive)	> 100 µM (inactive)	> 100 µM (inactive)	> 100 µM (inactive)	> 100 µM	> 100 µM (inactive)	> 100 µM (inactive)	> 100 µM (inactive)	> 100 µM (inactive)	> 100 µM (inactive)	> 100 µM (inactive)	> 100 µM (inactive)	> 100 µM (inactive)	> 100 µM (inactive)	> 100 µM (inactive)	> 100 µM (inactive)	> 100 µM (inactive)	> 100 µM (inactive)	> 100 µM (inactive)	> 100 µM (inactive)
NCOC(=O)Cc1ccc(Br)cc1	> 100 µM (inactive)	> 100 µM (inactive)	> 100 µM (inactive)	> 100 µM (inactive)	> 100 µM	> 100 µM (inactive)	> 100 µM (inactive)	> 100 µM (inactive)	> 100 µM (inactive)	> 100 µM (inactive)	> 100 µM (inactive)	> 100 µM (inactive)	> 100 µM (inactive)	> 100 µM (inactive)	> 100 µM (inactive)	> 100 µM (inactive)	> 100 µM (inactive)	> 100 µM (inactive)	> 100 µM (inactive)	> 100 µM (inactive)
O=C1CCCCc2cccc(O)c21	> 100 µM (inactive)	> 100 µM (inactive)	> 100 µM (inactive)	> 100 µM (inactive)	> 100 µM	> 100 µM (inactive)	> 100 µM (inactive)	> 100 µM (inactive)	> 100 µM (inactive)	> 100 µM (inactive)	> 100 µM (inactive)	> 100 µM (inactive)	> 100 µM (inactive)	> 100 µM (inactive)	> 100 µM (inactive)	> 100 µM (inactive)	> 100 µM (inactive)	> 100 µM (inactive)	> 100 µM (inactive)	> 100 µM (inactive)
Cc1cc(S(=O)(=O)Nc2nc3ccccc3nc2-c2cccc([N+](=O)[O-])c2)c(S)cc1Cl	19.2 µM (inactive)	18.1 µM (inactive)	16.5 µM (inactive)	17.9 µM (inactive)	43 µM	18.5 µM (inactive)	14.4 µM (inactive)	23.6 µM (inactive)	18.5 µM (inactive)	22.5 µM (inactive)	16.3 µM (inactive)	17.9 µM (inactive)	19.9 µM (inactive)	16.6 µM (inactive)	15.9 µM (inactive)	30 µM (inactive)	17.2 µM (inactive)	19.7 µM (inactive)	27.8 µM (inactive)	35.2 µM (inactive)
Cc1nc(O)nc(N/N=C/c2ccc(Cl)cc2)c1C(=O)NC(C)(CO)CO	> 100 µM (inactive)	> 100 µM (inactive)	> 100 µM (inactive)	> 100 µM (inactive)	> 100 µM	> 100 µM (inactive)	> 100 µM (inactive)	> 100 µM (inactive)	> 100 µM (inactive)	> 100 µM (inactive)	> 100 µM (inactive)	> 100 µM (inactive)	> 100 µM (inactive)	> 100 µM (inactive)	> 100 µM (inactive)	> 100 µM (inactive)	60.7 µM (inactive)	> 100 µM (inactive)	> 100 µM (inactive)	> 100 µM (inactive)
